Assay results: US20110039762A1, “TARGETED ANTIMICROBIAL MOIETIES” (C3 JIAN, INC., priority 2009, published 2011)
Entries after “also recorded” stand apart in the source; their conditions may differ.

Tests used:
S. mutans [1] = format: cell-based, Streptococcus mutans; details: S. mutans
Method: Typically, the in vitro antimicrobial activity of antimicrobial agents is tested using standard NCCLS bacterial inhibition assays, or MIC tests (see, National Committee on Clinical Laboratory Standards “Performance Standards for Antimicrobial Susceptibility Testing,” NCCLS Document M100-S5 Vol. 14, No. 16, December 1994; “Methods for dilution antimicrobial susceptibility test for bacteria that grow aerobically-Third Edition,” Approved Standard M7-A3, National Committee for Clinical Standards, Villanova, Pa.).
Briefly, ˜1×10^5 cfu/mL bacteria were diluted in TH (S. mutans), or Mueller-Hinton (MH) broth (all other organisms) and distributed to 96-well plates. Serially-diluted (2-fold) peptides were then added and the plates incubated at 37° C. for 18-24 h. […] All experiments were conducted 10 times.

S. epidermidis = test: Kill or inhibit growth/proliferation; morphology, biofilm and growth disruption (Tables 5, 6); format: cell-based, Staphylococcus epidermidis; parameters: key: A: Peptide aggregates; B: Less hyphal formation; Clumps; Diffuse clumps and small polyps; F: Diffuse growth; H: Thin; I: Growth inhibition; Microcolony formation; Rippled; Small polyps; Thick; W: Halo formation on top, microlonies on bottom; note: test concentration or dose not given here
S. mutans [2] = test: as above; format: cell-based, Streptococcus mutans; parameters: key: A: Peptide aggregates; B: Less hyphal formation; Clumps; Diffuse clumps and small polyps; F: Diffuse growth; H: Thin; I: Growth inhibition; Microcolony formation; Rippled; Small polyps; Thick; W: Halo formation on top, microlonies on bottom
microorganisms = test: Peptides having multiple activities (targeting/binding, antimicrobial, growth or phenotype altering)
Source text: In certain embodiments, peptides described herein can have multiple activities. Thus for example, a peptide can have both binding/targeting activity and antimicrobial activity. Such peptides can be used, e.g., in a chimeric construct, for any or all of these properties. Thus, for example, a peptide designated “B” in Table 8 can be used as a targeting peptide. If it is also designated G or M it can also be used for antimicrobial activity.

E. coli = test: Kill or inhibit growth/proliferation; morphology, biofilm and growth disruption (Tables 5, 6); format: cell-based, Escherichia coli; parameters: key: A: Peptide aggregates; B: Less hyphal formation; Clumps; Diffuse clumps and small polyps; F: Diffuse growth; H: Thin; I: Growth inhibition; Microcolony formation; Rippled; Small polyps; Thick; W: Halo formation on top, microlonies on bottom; note: test concentration or dose not given here
P. aeruginosa = test: as above; format: cell-based, Pseudomonas aeruginosa; parameters: key: A: Peptide aggregates; B: Less hyphal formation; Clumps; Diffuse clumps and small polyps; F: Diffuse growth; H: Thin; I: Growth inhibition; Microcolony formation; Rippled; Small polyps; Thick; W: Halo formation on top, microlonies on bottom
S. pneumoniae = test: as above; format: cell-based, Streptococcus pneumoniae; parameters: key: A: Peptide aggregates; B: Less hyphal formation; Clumps; Diffuse clumps and small polyps; F: Diffuse growth; H: Thin; I: Growth inhibition; Microcolony formation; Rippled; Small polyps; Thick; W: Halo formation on top, microlonies on bottom
[3] = test system: microorganisms (e.g., bacteria, yeasts, fungi); test: Targeting peptide binding to target microorganisms (Table 3); details: peptide binding in aqueous buffers varied by peptide solubility; preferably 1x PBS
MRSA = test: Kill or inhibit growth/proliferation; morphology, biofilm and growth disruption (Tables 5, 6); format: cell-based, Methicillin-resistant Staphylococcus aureus; parameters: key: A: Peptide aggregates; B: Less hyphal formation; Clumps; Diffuse clumps and small polyps; F: Diffuse growth; H: Thin; I: Growth inhibition; Microcolony formation; Rippled; Small polyps; Thick; W: Halo formation on top, microlonies on bottom; note: test concentration or dose not given here
M. luteus = test: as above; format: cell-based, Micrococcus luteus; parameters: key: A: Peptide aggregates; B: Less hyphal formation; Clumps; Diffuse clumps and small polyps; F: Diffuse growth; H: Thin; I: Growth inhibition; Microcolony formation; Rippled; Small polyps; Thick; W: Halo formation on top, microlonies on bottom
F. nucleatum = test: as above; format: cell-based, Fusobacterium nucleatum; parameters: key: A: Peptide aggregates; B: Less hyphal formation; Clumps; Diffuse clumps and small polyps; F: Diffuse growth; H: Thin; I: Growth inhibition; Microcolony formation; Rippled; Small polyps; Thick; W: Halo formation on top, microlonies on bottom
C. jeikeium = test: as above; format: cell-based, Corynebacterium jeikeium; parameters: key: A: Peptide aggregates; B: Less hyphal formation; Clumps; Diffuse clumps and small polyps; F: Diffuse growth; H: Thin; I: Growth inhibition; Microcolony formation; Rippled; Small polyps; Thick; W: Halo formation on top, microlonies on bottom
B. subtilis = test: as above; format: cell-based, Bacillus subtilis; parameters: key: A: Peptide aggregates; B: Less hyphal formation; Clumps; Diffuse clumps and small polyps; F: Diffuse growth; H: Thin; I: Growth inhibition; Microcolony formation; Rippled; Small polyps; Thick; W: Halo formation on top, microlonies on bottom
C. jejuni = test: as above; format: cell-based, Campylobacter jejuni; parameters: key: A: Peptide aggregates; B: Less hyphal formation; Clumps; Diffuse clumps and small polyps; F: Diffuse growth; H: Thin; I: Growth inhibition; Microcolony formation; Rippled; Small polyps; Thick; W: Halo formation on top, microlonies on bottom
C. albicans = test: as above; format: cell-based, Candida albicans; parameters: key: A: Peptide aggregates; B: Less hyphal formation; Clumps; Diffuse clumps and small polyps; F: Diffuse growth; H: Thin; I: Growth inhibition; Microcolony formation; Rippled; Small polyps; Thick; W: Halo formation on top, microlonies on bottom
Throughout, for Organism, effect (morphology, biofilm and growth disruption): test concentration or dose not given here.

## FIRKFLKKWLL [Peptide K-9]
S. mutans [1]
  MIC: S. mutans, 4 μM

## FLKFLKKFFKKLKY [Peptide K-20]
S. mutans [1]
  MIC: S. mutans, 8 μM

## FTRKFLKFLHL [Peptide K-17]
S. mutans [1]
  MIC: S. mutans, 8 μM

## GIFKKFVKILYKVQKL [Peptide K-22]
S. mutans [1]
  MIC: S. mutans, 8 μM

## GILKKLFTKVF [Peptide K-13]
S. mutans [1]
  MIC: S. mutans, 16 μM

## GLGRVIGRLIKQIIWRR [Peptide K-1]
S. mutans [1]
  MIC: S. mutans, 25 μM

## GWLKMFKKIIGKFGKF [Peptide K-21]
S. mutans [1]
  MIC: S. mutans, 8 μM

## KILKFLFKKVF [Peptide K-8]
S. mutans [1]
  MIC: S. mutans, 4 μM

## KILKFLFKQVF [Peptide K-11]
S. mutans [1]
  MIC: S. mutans, 4 μM

## KILKKLFKFVF [Peptide K-12]
S. mutans [1]
  MIC: S. mutans, 8 μM

## KKFKKFKVLKIL [Peptide K-18]
S. mutans [1]
  MIC: S. mutans, 16 μM

## KLFKFLRKHLL [Peptide K-10]
S. mutans [1]
  MIC: S. mutans, 4 μM

## LLKLLKLKKLKF [Peptide K-19]
S. mutans [1]
  MIC: S. mutans, 16 μM

## LRKFLHKLF [Peptide K-14]
S. mutans [1]
  MIC: S. mutans, 8 μM

## LRKNLRWLF [Peptide K-15]
S. mutans [1]
  MIC: S. mutans, 4 μM

## NYRLVNAIFSKIFKKKFIKF [Peptide K-7]
S. mutans [1]
  MIC: S. mutans, 12.5 μM

## PF-746: peptide having multiple activities (FLGNSQYFTRK; Peptide with targeting and/or antimicrobial activity)
S. epidermidis
  Organism, effect (morphology, biofilm and growth disruption): S. epidermidis (C)
S. mutans [2]
  Organism, effect (morphology, biofilm and growth disruption): S. mutans (D)
microorganisms
  Activities: G B
E. coli
  Organism, effect (morphology, biofilm and growth disruption): E. coli (C)
P. aeruginosa
  Organism, effect (morphology, biofilm and growth disruption): P. aeruginosa (A)
S. pneumoniae
  Organism, effect (morphology, biofilm and growth disruption): S. pneumoniae (C)
[3]
  Target(s) (microorganisms bound by the targeting peptide): S. epidermidis; also recorded: M. luteus; also recorded: E. coli; also recorded: C. albicans; also recorded: S. pneumoniae; also recorded: E. faecalis; also recorded: C. jeikeium
MRSA
  Organism, effect (morphology, biofilm and growth disruption): MRSA (C)
M. luteus
  Organism, effect (morphology, biofilm and growth disruption): M. luteus (C)

## PF-761: peptide having multiple activities (SKFELVNYASGCSCGADCKCASETECKCASKK; Peptide with targeting and/or antimicrobial activity)
S. epidermidis
  Organism, effect (morphology, biofilm and growth disruption): S. epidermidis (C)
S. mutans [2]
  Organism, effect (morphology, biofilm and growth disruption): S. mutans (D)
microorganisms
  Activities: G B
E. coli
  Organism, effect (morphology, biofilm and growth disruption): E. coli (C)
P. aeruginosa
  Organism, effect (morphology, biofilm and growth disruption): P. aeruginosa (C)
S. pneumoniae
  Organism, effect (morphology, biofilm and growth disruption): S. pneumoniae (C)
[3]
  Target(s) (microorganisms bound by the targeting peptide): S. epidermidis and M. luteus and P. mirabilis and P. aeruginosa and C. albicans and MRSA and S. pneumoniae and E. faecalis
MRSA
  Organism, effect (morphology, biofilm and growth disruption): MRSA (D)
M. luteus
  Organism, effect (morphology, biofilm and growth disruption): M. luteus (C)

## PF-C064: peptide having multiple activities (DEEALEMGANLYAQFAIDFLNSKK; Peptide with targeting and/or antimicrobial activity)
microorganisms
  Activities: G B
F. nucleatum
  Organism, effect (morphology, biofilm and growth disruption): F. nucleatum (T)
[3]
  Target(s) (microorganisms bound by the targeting peptide): A. naeslundii; also recorded: F. nucleatum; also recorded: P. gingivalis; also recorded: S. mutans; also recorded: T. denticola

## PF-C069: peptide having multiple activities (NALMLREMQLAKNIKVEVTDVLSNKKYC; Peptide with targeting and/or antimicrobial activity)
microorganisms
  Activities: G B
F. nucleatum
  Organism, effect (morphology, biofilm and growth disruption): F. nucleatum (T)
[3]
  Target(s) (microorganisms bound by the targeting peptide): A. naeslundii; also recorded: F. nucleatum; also recorded: P. gingivalis; also recorded: S. mutans; also recorded: T. denticola

## PF-C071: peptide having multiple activities (QVIVKIL; Peptide with targeting and/or antimicrobial activity)
microorganisms
  Activities: G B
F. nucleatum
  Organism, effect (morphology, biofilm and growth disruption): F. nucleatum (T)
[3]
  Target(s) (microorganisms bound by the targeting peptide): A. naeslundii; also recorded: F. nucleatum; also recorded: S. mutans

## PF-C091: peptide having multiple activities (ASNTPRFVRLTLFNFYSKIWNVTHLFLFNNL; Peptide with targeting and/or antimicrobial activity)
microorganisms
  Activities: G B
F. nucleatum
  Organism, effect (morphology, biofilm and growth disruption): F. nucleatum (T)
[3]
  Target(s) (microorganisms bound by the targeting peptide): A. naeslundii; also recorded: F. nucleatum; also recorded: P. gingivalis; also recorded: S. mutans; also recorded: T. denticola

## PF-C120: peptide having multiple activities (ASLSTMTFKVMELKELIILLCGLTMLMIQTEFV; Peptide with targeting and/or antimicrobial activity)
microorganisms
  Activities: G B
F. nucleatum
  Organism, effect (morphology, biofilm and growth disruption): F. nucleatum (T)
[3]
  Target(s) (microorganisms bound by the targeting peptide): A. naeslundii; also recorded: F. nucleatum; also recorded: P. gingivalis; also recorded: S. mutans; also recorded: T. denticola

## PF-C137: peptide having multiple activities (QRMYWFKRGFETGDFSAGDTFAELK; Peptide with targeting and/or antimicrobial activity)
microorganisms
  Activities: G B
F. nucleatum
  Organism, effect (morphology, biofilm and growth disruption): F. nucleatum (T)
[3]
  Target(s) (microorganisms bound by the targeting peptide): A. naeslundii; also recorded: F. nucleatum; also recorded: P. gingivalis; also recorded: S. mutans

## PF-C214 (GGHKQLVIEPLVSQ; Peptide with targeting and/or antimicrobial activity)
F. nucleatum
  Organism, effect (morphology, biofilm and growth disruption): F. nucleatum (T)

## PF-S003: peptide having multiple activities (ALALLKQDLLNFEGRGRIITSTYLQFNEGCVP; Peptide with targeting and/or antimicrobial activity)
C. jeikeium
  Organism, effect (morphology, biofilm and growth disruption): C. jeikeium (D)
S. epidermidis
  Organism, effect (morphology, biofilm and growth disruption): S. epidermidis (R)
microorganisms
  Activities: G B
B. subtilis
  Organism, effect (morphology, biofilm and growth disruption): B. subtilis (A)
C. jejuni
  Organism, effect (morphology, biofilm and growth disruption): C. jejuni (D)
P. aeruginosa
  Organism, effect (morphology, biofilm and growth disruption): P. aeruginosa (A)
S. pneumoniae
  Organism, effect (morphology, biofilm and growth disruption): S. pneumoniae (D)
C. albicans
  Organism, effect (morphology, biofilm and growth disruption): C. albicans (A)
MRSA
  Organism, effect (morphology, biofilm and growth disruption): MRSA (M)
M. luteus
  Organism, effect (morphology, biofilm and growth disruption): M. luteus (R)

## VYRKRKSILKIYAKLKGWH [Peptide K-2]
S. mutans [1]
  MIC: S. mutans, 12.5 μM
